Source: PubChem BioAssay (NCI)
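Briefly, cells in 96-well plates were exposed to five compound concentrations for 48 h, and endpoints were estimated by linear interpolation. GI50 is the concentration that inhibits growth by half. Definition used: TGI = concentration required for complete inhibition of growth.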

Tests used:
Experiment in all cases: DTP human tumour cell line panel, 48 h
SNB-19 CNS = system: SNB-19 CNS
SW-620 colon = system: SW-620 colon
EKVX NSCLC = system: EKVX NSCLC
HCC-2998 colon = system: HCC-2998 colon
IGROV1 ovarian = system: IGROV1 ovarian
UACC-257 melanoma = system: UACC-257 melanoma
M14 melanoma = system: M14 melanoma
786-0 renal = system: 786-0 renal
NCI-H522 lung = system: NCI-H522 lung
SNB-75 CNS = system: SNB-75 CNS

Row | Structure (SMILES) | TGI (SNB-19 CNS) [µM] | TGI (SW-620 colon) [µM] | TGI (EKVX NSCLC) [µM] | TGI (HCC-2998 colon) [µM] | TGI (IGROV1 ovarian) [µM] | TGI (UACC-257 melanoma) [µM] | TGI (M14 melanoma) [µM] | TGI (786-0 renal) [µM] | TGI (NCI-H522 lung) [µM] | TGI (SNB-75 CNS) [µM] | GI50 (SNB-19 CNS) [µM] | GI50 (SW-620 colon) [µM] | GI50 (EKVX NSCLC) [µM] | GI50 (HCC-2998 colon) [µM] | GI50 (IGROV1 ovarian) [µM] | GI50 (UACC-257 melanoma) [µM] | GI50 (M14 melanoma) [µM] | GI50 (786-0 renal) [µM] | GI50 (NCI-H522 lung) [µM] | GI50 (SNB-75 CNS) [µM]
1 | NC(N)=NS(=O)(=O)c1ccc(Nc2c3ccccc3nc3c(C(=O)N4CCN(CCO)CC4)cccc23)cc1 | > 100 | > 100 | > 100 | > 100 | > 100 | > 100 | > 100 | > 100 | > 100 | > 100 | – | – | – | – | – | – | – | – | – | –
2 | Cc1ccc(NC(=O)CC/C(CC(=O)C(C)(C)C)=N/NC(=O)C(N)=O)cc1C | > 100 | > 100 | > 100 | > 100 | > 100 | > 100 | > 100 | > 100 | > 100 | > 100 | – | – | – | – | – | – | – | – | – | –
3 | N#CC(C#N)=Cc1c(-c2ccccc2)[nH]c2ccccc12 | > 100 | > 35.1 | > 86.4 | 35.9 | 31.9 | > 64.7 | > 56.6 | > 64.1 | 32.7 | 14.3 | 5.71 | 0.523 | 5.81 | 10.4 | 0.743 | 23.9 | 1.88 | 8.55 | 4.23 | 2
4 | CN(Cc1cnc(N)nc1N)c1ccc(C(=O)O)cc1 | > 100 | > 100 | > 100 | > 100 | > 100 | > 100 | > 100 | > 100 | > 100 | > 100 | > 100 | > 100 | > 100 | > 100 | > 100 | > 100 | > 100 | > 100 | > 100 | > 100
5 | CC[C@@]1(OC(=O)CN)C(=O)OCc2c1cc1n(c2=O)Cc2cc3cc4c(cc3nc2-1)OCO4 | 92.8 | – | > 100 | 1.38 | 0.815 | 0.417 | 0.0439 | 0.0367 | 0.246 | – | < 0.01 | < 0.01 | 0.0735 | 0.0171 | < 0.0145 | < 0.0234 | < 0.01 | < 0.01 | < 0.01 | < 0.01
6 | COc1ccc(C2=Nc3ccccc3SC(C)C2)cc1 (centres undefined) | > 100 | > 100 | > 100 | > 100 | > 100 | > 100 | > 100 | > 100 | > 100 | > 100 | – | – | – | – | – | – | – | – | – | –
7 | Cc1cc(N2CCN(C)CC2)nc(NCc2cc(Nc3ccnc4cc(Cl)ccc34)ccc2F)n1 | > 100 | 4.01 | > 100 | 4.85 | 7.26 | 3.9 | 3.86 | 3.7 | 3.88 | 5.56 | 3.32 | 1.85 | 2.5 | 1.79 | 2.04 | 2.11 | 2 | 1.84 | 1.92 | 1.69
8 | N#CCCN(CCC#N)C(=O)c1cccc(C(=O)N(CCC#N)CCC#N)c1 | > 100 | 26.5 | > 63.9 | > 100 | > 100 | > 100 | > 100 | > 100 | > 100 | > 59.3 | – | – | – | – | – | – | – | – | – | –
9 | Cc1csc(/C=N/NC(=O)c2nnn(-c3ccnc4c(C(F)(F)F)cccc34)c2C)c1 | > 100 | > 100 | > 100 | > 100 | > 100 | 51.4 | > 100 | > 100 | > 100 | 92.1 | 97.3 | > 100 | > 100 | > 100 | > 100 | 14 | > 100 | > 100 | 28.7 | 27.2
10 | CCC1=C(C)/C(=C/c2[nH]c(C(Br)Br)c(CC)c2C)N=C1C(Br)Br | > 100 | > 100 | > 100 | 52.9 | > 100 | 57.6 | > 100 | > 100 | 38.1 | 90.8 | – | – | – | – | – | – | – | – | – | –
11 | COc1cc2ccccc2c2cc([N+](=O)[O-])oc12 | > 55.4 | 15 | 14.1 | 1.09 | 7.19 | 0.443 | 0.608 | 7.49 | 1.35 | 6.9 | – | – | – | 0.294 | – | – | – | – | – | –
12 | COc1ccc(C(C#N)NC23CC4CC(CC(C4)C2)C3)cc1OC (centres undefined) | > 100 | > 100 | > 100 | > 100 | > 100 | > 100 | > 100 | > 100 | > 100 | > 100 | – | – | – | – | – | – | – | – | – | –
13 | CC(N=C(N)N)C(=O)O (centres undefined) | > 100 | > 100 | > 100 | > 100 | > 100 | > 100 | > 100 | > 100 | > 100 | > 100 | – | – | – | – | – | – | – | – | – | –
14 | O=C(/C=C/c1ccccc1)c1c[nH]c2ccccc2c1=O | 20.5 | 10 | 20.1 | 9.48 | 16.4 | 15.1 | 11.6 | 17.2 | 4.85 | 12 | 4.68 | 2.76 | 3.95 | 2.85 | 3.67 | 3.56 | 3.49 | 4.01 | 1.88 | 3.1
15 | COc1cc(/C=N/Nc2ncnc3c2cnn3C(C)C)ccc1O | > 25 | > 25 | > 25 | > 25 | 20.5 | > 25 | > 25 | > 25 | > 25 | 9.57 | 17 | 8.41 | 11.6 | 17.3 | 7.56 | 14.9 | 11.8 | 10.8 | 6.78 | 0.506
16 | N#CNC(N)=NCCO | > 100 | 35.9 | > 100 | > 100 | > 100 | > 100 | > 100 | > 100 | > 100 | > 100 | – | – | – | – | – | – | – | – | – | –
